Source: patent US12012412B2, “Solid forms of pyrazolo[3,4-d]pyrimidine compounds” (Pfizer Inc., priority 2021, dated 2024)
In brackets after ≈: the same amount, converted by molar mass.

How the values were obtained:
Type in all cases: physicochemical
[1] = Solubility of Solid Form A and amorphous Compound X in various solvents at room temperature
[2] = Physical stability of Solid Form A to milling
Protocol: Samples of Solid Form A were milled to reduce particle size.
Milled samples of Solid Form A were remilled, and exposed at 40° C./75% RH.

[3] = Particle size of batches of Solid Form A
From the text: Primary particles from below 100 μm to around 500 μm in size, with soft agglomerates up to several millimeters, were observed. The D[4,3] of this material was 195 μm. This material was subsequently milled, to give far fewer large particles and an overall much smaller average primary particle size, giving a D[4,3] of 49.5 μm. See Table 8 for a comparison of particle size properties of various batches.

[4] = True density of Solid Form A
[5] = Organic solubility: gravimetric (TGA) solubility at 25° C.
[6] = Water sorption (dynamic vapor sorption) of Solid Form A; details: 25° C.
Protocol: Solid Form A is non-hygroscopic, absorbing less than 0.05% water at 90% RH, 25° C. See FIG. 7 for the isotherm plot.

[7] = Aqueous solubility of Solid Form A in biologically relevant pH conditions at 25° C.; details: thermodynamic from solid
[8] = Gravimetric analysis (TGA/EGA) of Solid Form A; details: heated at 10° C./minute
Protocol: 10.9587 mg of Solid Form A was placed in a platinum crucible. This was analysed on a TA Instruments Discovery ThermoGravimetric Analyser, using a method that heated the sample from 25° C. to 300° C. at 10° C./minute with a nitrogen purge gas; alternatively, approximately 5-10 mg of material was weighed into an open aluminum pan and loaded into a simultaneous thermogravimetric/differential thermal analyzer (TG/DTA) and held at room temperature. The sample was then heated at a rate of 10° C./min from 20° C. to 400° C. during which time the change in sample weight was recorded along with any differential thermal events (DTA). Nitrogen was used as the purge gas, at a flow rate of 300 cm^3/min.

[9] = Chemical and physical stability of Solid Form A (real-time and accelerated storage); details: for Time through which chemically and physically stable: unmilled, bulk packaging
[10] = milled samples remilled, exposed at 40° C./75% RH

For `C[C@@H]1CN(Cc2ncccn2)C[C@H]1c1nc2c(cnn2C2CCOCC2)c(=O)[nH]1` [Solid Form A, 6-((3S,4S)-4-methyl-1-(pyrimidin-2-ylmethyl)pyrrolidin-3-yl)-1-(tetrahydro-2H-pyran-4-yl)-1,5-dihydro-4H-pyrazolo[3,4-d]pyrimidin-4-one], the “Solubility (mg/ml)” value ([1]; 1,2-Xylene) was over 65.4 mg/mL, the “Solubility (mmol)” value ([1]; 1,2-Xylene) was over 165 mmol and the “Solubility (mg/ml)” value ([1]; Acetone) was 49.4 mg/mL (≈ 125 mM). For the same compound, the “Solubility (mmol)” value ([1]; Acetone) was 125 mmol, the “Solubility (mmol)” value ([1]; Chloroform) was over 145 mmol and the “Solubility (mmol)” value ([1]; Dioxane) was over 117 mmol. For the same compound, the “Solubility (mg/ml)” value ([1]; EtOAc) was 44.7 mg/mL (≈ 113 mM), the “Solubility (mmol)” value ([1]; EtOAc) was 113 mmol and the “Solubility (mmol)” value ([1]; EtOH) was 160 mmol. The “Solubility (mmol)” value ([1]; Glyme (1,2-Dimethoxyethane)) was over 159 mmol, the “Solubility (mmol)” value ([1]; H2O (Water)) was 89 mmol and the “Solubility (mmol)” value ([1]; H2O-EtOH (Water/EtOH)) was over 75 mmol. For the same compound, the “Solubility (mg/ml)” value ([1]; H2O-MeCN (Water/MeCN)) was over 27 mg/mL, the “Solubility (mmol)” value ([1]; H2O-MeCN (Water/MeCN)) was over 68 mmol and the “Solubility (mmol)” value ([1]; H2O-MeOH (Water/MeOH)) was over 87 mmol. The “Solubility (mg/ml)” value ([1]; H2O-acetone (Water/acetone)) was over 33.3 mg/mL, the “Solubility (mmol)” value ([1]; H2O-acetone (Water/acetone)) was over 84 mmol and the “Solubility (mmol)” value ([1]; Heptane) was 1 mmol. The “Solubility (mg/ml)” value ([1]; IPA) was 29.2 mg/mL (≈ 73.8 mM), the “Solubility (mmol)” value ([1]; IPA) was 74 mmol and the “Solubility (mmol)” value ([1]; MTBE) was 17 mmol. For the same compound, the solubility ([1]; MTBE, organic solvent or mixture) was 6.7 mg/mL (≈ 16.9 mM), the “Solubility (mg/ml)” value ([1]; MeCN) was 47.8 mg/mL (≈ 121 mM) and the “Solubility (mmol)” value ([1]; MeCN) was 121 mmol. For the same compound, the “Solubility (mmol)” value ([1]; MeOH) was over 181 mmol, the “Solubility (mmol)” value ([1]; Methoxy ethanol) was over 188 mmol and the “Solubility (mmol)” value ([1]; Nitromethane) was over 189 mmol. The “Solubility (mmol)” value ([1]; THF) was over 147 mmol, the solubility ([1]; THF, organic solvent or mixture) was over 58 mg/mL and the “Solubility (mg/ml)” value ([1]; Toluene) was 52.2 mg/mL (≈ 132 mM). For the same compound, the “Solubility (mmol)” value ([1]; Toluene) was 132 mmol, the solubility ([1]; chloroform, organic solvent or mixture) was over 57.5 mg/mL and the solubility ([1]; dioxane, organic solvent or mixture) was over 46.3 mg/mL. The solubility ([1]; ethanol (EtOH), organic solvent or mixture, EtOH) was 63.4 mg/mL (≈ 160 mM), the solubility ([1]; glyme (1,2-dimethoxyethane), organic solvent or mixture) was over 63 mg/mL and the solubility ([1]; heptane, organic solvent or mixture) was 0.6 mg/mL (≈ 1.52 mM). It also gave a solubility ([1]; methanol (MeOH), organic solvent or mixture, MeOH) of over 71.4 mg/mL, a solubility ([1]; methoxy ethanol, organic solvent or mixture) of over 74.5 mg/mL and a solubility ([1]; nitromethane, organic solvent or mixture) of over 74.9 mg/mL. It also gave a solubility ([1]; water, H2O (Water)) of 35.3 mg/mL (≈ 89.3 mM), a solubility ([1]; water/EtOH, aqueous with cosolvent or surfactant or cyclodextrin, H2O-EtOH (Water/EtOH)) of over 29.8 mg/mL and a solubility ([1]; water/MeOH, aqueous with cosolvent or surfactant or cyclodextrin, H2O-MeOH (Water/MeOH)) of over 34.2 mg/mL. The “Change in crystallinity (XRPD)” value [2, 10] was “no sign of a decrease in crystallinity”, the “Form change (XRPD)” value [2, 10] was “no sign of form change” and the “Impact of milling upon polymorphic form” value ([2]; milled to reduce particle size) was “No impact upon polymorphic form”. The “Particle size D[4, 3]” value ([3]; after milling) was 49.5 μm, the “Particle size D[4, 3]” value ([3]; unmilled material) was 195 μm and the “True Density (crystal structure)” value ([4]; from crystal structure) was 1.279 Mg/m^3. For the same compound, the “True Density (measured)” value ([4]; measured) was 1.29 Mg/m^3, the solubility ([5]; Acetone) was 125 mmol and the solubility ([5]; EtOAc) was 113 mmol. It also gave a solubility ([5]; EtOH) of 160 mmol, a solubility ([5]; H2O) of 89 mmol and a solubility ([5]; Heptane) of 1 mmol. The solubility ([5]; IPA) was 74 mmol, the solubility ([5]; MTBE) was 17 mmol and the solubility ([5]; MeCN) was 121 mmol. It also gave a solubility ([5]; Toluene) of 132 mmol, a solubility ([5]; ethanol (EtOH), organic solvent or mixture, thermodynamic from solid, EtOH, read-out: Solubility) of 63.4 mg/mL (≈ 160 mM) and a solubility ([5]; ethyl acetate (EtOAc), organic solvent or mixture, thermodynamic from solid, EtOAc, read-out: Solubility) of 44.7 mg/mL (≈ 113 mM). For the same compound, the solubility ([5]; organic solvent or mixture, thermodynamic from solid, Acetone, read-out: Solubility) was 49.4 mg/mL (≈ 125 mM), the solubility ([5]; organic solvent or mixture, thermodynamic from solid, Heptane, read-out: Solubility) was 0.6 mg/mL (≈ 1.52 mM) and the solubility ([5]; organic solvent or mixture, thermodynamic from solid, IPA, read-out: Solubility) was 29.2 mg/mL (≈ 73.8 mM). For the same compound, the solubility ([5]; organic solvent or mixture, thermodynamic from solid, MTBE, read-out: Solubility) was 6.7 mg/mL (≈ 16.9 mM), the solubility ([5]; organic solvent or mixture, thermodynamic from solid, MeCN, read-out: Solubility) was 47.8 mg/mL (≈ 121 mM) and the solubility ([5]; organic solvent or mixture, thermodynamic from solid, Toluene, read-out: Solubility) was 52.2 mg/mL (≈ 132 mM). For the same compound, the solubility ([5]; water, thermodynamic from solid, H2O, read-out: Solubility) was 35.3 mg/mL (≈ 89.3 mM), the “Water Content, Desorption” value ([6]; 0 % RH) was 0 % w/w and the “Water Content, Sorption” value ([6]; 0 % RH) was 0 % w/w. The “Water Content, Desorption” value ([6]; 10 % RH) was 0.01 % w/w, the “Water Content, Sorption” value ([6]; 10 % RH) was 0.01 % w/w and the “Water Content, Desorption” value ([6]; 20 % RH) was 0.01 % w/w. The “Water Content, Sorption” value ([6]; 20 % RH) was 0.01 % w/w, the Hygroscopicity [6] was “non-hygroscopic” and the “Water Content, Desorption” value ([6]; 30 % RH) was 0.01 % w/w. The “Water Content, Sorption” value ([6]; 30 % RH) was 0.01 % w/w, the “Water Content, Desorption” value ([6]; 40 % RH) was 0.02 % w/w and the “Water Content, Sorption” value ([6]; 40 % RH) was 0.02 % w/w. For the same compound, the “Water Content, Desorption” value ([6]; 50 % RH) was 0.02 % w/w, the “Water Content, Sorption” value ([6]; 50 % RH) was 0.02 % w/w and the “Water Content, Desorption” value ([6]; 60 % RH) was 0.02 % w/w. For the same compound, the “Water Content, Sorption” value ([6]; 60 % RH) was 0.02 % w/w, the “Water Content, Desorption” value ([6]; 70 % RH) was 0.03 % w/w and the “Water Content, Sorption” value ([6]; 70 % RH) was 0.03 % w/w. The “Water Content, Desorption” value ([6]; 80 % RH) was 0.03 % w/w, the “Water Content, Sorption” value ([6]; 80 % RH) was 0.03 % w/w and the Water absorbed ([6]; 90% RH) was “less than 0.05%”. For the same compound, the solubility ([7]; aqueous buffer, 100 mM Citrate buffer, pH 4.5, 25° C.) was over 55.9 mg/mL, the solubility ([7]; aqueous buffer, 100 mM Citrate buffer, pH 6.0, 25° C.) was over 52.2 mg/mL and the solubility ([7]; aqueous buffer, 100 mM Phosphate buffer, pH 6.5, 25° C.) was over 53.3 mg/mL. For the same compound, the solubility ([7]; aqueous buffer, 100 mM Succinate buffer, pH 4.0, 25° C.) was over 58.6 mg/mL, the solubility ([7]; aqueous buffer, 100 mM Succinate buffer, pH 5.5, 25° C.) was over 52.8 mg/mL and the solubility ([7]; aqueous buffer, Phosphate buffered saline, pH 7.0, 25° C.) was 42.1 mg/mL (≈ 106 mM). For the same compound, the solubility ([7]; aqueous buffer, Phosphate buffered saline, pH 7.4, 25° C.) was 27.6 mg/mL (≈ 69.8 mM), the solubility ([7]; simulated gastric fluid, 0.01M HCl, pH 1.7, 25° C.) was over 56.6 mg/mL and the “Temperature until which no significant degradation is seen (TGA)” value [8] was “degradation until approximately 240 °C See FIG. 3”. The Stability on storage ([9]; milled, 70° C./75% RH, 1 week) was “no change in stability”, the “Time through which chemically and physically stable” value ([9]; 40° C./75% RH accelerated conditions) was at least 6 months and the “Time through which chemically and physically stable” value ([9]; room temperature conditions (63 months @ 15-30° C. and 21 months at 25° C./60% RH)) was at least 84 months.
